The values below come from EP2045247B1, “Compounds for the inhibition of histone deacetylase” (NatureWise Biotech & Medicals Corporation, priority 2007, dated 2009).

Assay [1] has as its system breast cancer MCF-7 cells. Briefly: Inhibition of growth and change of morphology of MCF-7 cells. It is filed as cell-based, human. As to the method:
The breast cancer MCF-7 cells, were cultured in Dulbecco's modified Eagle's medium (DMEM; Gibco) supplemented with penicillin G, streptomycin sulphate, 0.5 mM of L-glutamine and 10% fetal bovine serum (FBS; Gibco) at 37 °C, 5% CO2 and 95% relative humidity. The cells were seeded at a density of 3×10^5 per well of 6-well plates. After 24 hours, the cells were treated with different concentrations of compound NBM-HD-1 and 4mM sodium butyrate being used as the positive control. The cells were observed after 48 hours and counted after 96 hours. […] In Fig. 8(A), after the cells were incubated with 2.5 µg/mL (Fig. 8(A)-b), 5 µg/mL (Fig. 8(A)-c) and 10 µg/mL (Fig. 8(A)-d) of NBM-HD-1 for 48 hours, the density of MCF-7 cells reduced dramatically in comparison with that of the control group (Fig. 8(A)-a). The morphology of the MCF-7 cells in the experimental group changed in comparison with that in the control group. […] The results of the cell counting (FIG. 8(B)) indicate that, similar to sodium butyrate, NBM-HD-1 inhibits cell growth.
MCF-7 cancer cells were seeded at a density of 3×10^5 per well in 6-well plates. After 24 hours, the cells were treated with different concentrations of compound NBM-HD-2 and 4mM sodium butyrate being used as the positive control. The cells were observed and counted after 72 hours. […] In Fig. 13(A), after the cells were incubated with 2.5 µg/mL (Fig. 13(A)-c), 5 µg/mL (Fig. 13(A)-d), 7.5 µg/mL (Fig. 13(A)-e) and 10 µg/mL (Fig. 13(A)-f) of NBM-HD-2 for 72 hours, the density of MCF-7 cells reduced dramatically in comparison with that of the control group (Fig. 13(A)-a). The morphology of the MCF-7 cells in the experimental group changed in comparison with that in the control group.
MCF-7 cancer cells were seeded at a density of 3×10^5 per well of 6-well plates. After 24 hours, the cells were treated with different concentrations of compound NBM-HD-3 and 4mM sodium butyrate, which was being used as the positive control. The cells were observed and counted after 72 hours. […] In Fig. 14(A), after the cells were incubated with 2.5 µg/mL (Fig. 14(A)-c), 5 µg/mL (Fig. 14(A)-d), 7.5 µg/mL (Fig. 14(A)-e) and 10 µg/mL (Fig. 14(A)-f) of NBM-HD-3 for 72 hours, the density of MCF-7 cells reduced dramatically in comparison with that of the control group (Fig. 14(A)-a). The morphology of the MCF-7 cells in the experimental group changed in comparison with that in the control group. […] The results of the cell counting (FIG. 14(B)) indicate that, similar to sodium butyrate, NBM-HD-3 inhibits cell growth.

Assay [2] relates to human giloblastoma DBTRG-05MG cancer cells. Briefly: Inhibition of growth and change of morphology of DBTRG-05MG cells. It is filed as cell-based. As to the method: The human giloblastoma DBTRG-05MG cancer cells were cultured in RPMI medium 1640 (Gibco) supplemented with penicillin G, streptomycin sulphate, 0.5 mM of L-glutamine and 10% fetal bovine serum (FBS; Gibco), 100mh/L sodium pyruvate (Gibco), and 1% NEAA (Gibco) at 37 °C, 5% CO2 and 95% relative humidity. For these experiments, the cells were seeded at a density of 3×10^5 per well of 6-well plates. After 24 hours, the cells were treated with different concentrations of NBM-HD-1 and 4 mM sodium butyrate. The cells were observed and counted after 72 hours. […] In 05MG cells (Fig. 7(A)), after incubation with 2.5 µg/mL (Fig. 7(A)-b), 5 µg/mL (Fig. 7(A)-c) and 10 µg/mL (Fig.7(A)-d) of NBM-HD-1 for 72 hours, the density of the cells reduced dramatically in comparison with that of the control group (Fig. 7(A)-a). The 05MG cells in the experimental group also changed to become longer than those in the control group.

The test system of another assay is HDAC. Briefly: HDAC activity assay (fluorometric kit) on nuclear extracts of treated C6 glioma cells. It is filed as cell-based, rat. The settings on record: C6 glioma cells treated 24 hours, nuclear extract, fluorescence (Fig. 6). As to the method:
The C6 glioma cells were treated with different doses of NBM-HD-1 and sodium butyrate (SB). After 24 hours, the cells were harvested to extract the nuclear proteins by NucBuster™ Protein Extraction Kit (Novagen) as described by the manufacturer's instructions. These extracts were then used in HDAC Activity Assay Kit (Calbiochem) to analyze their HDAC (histone deacetylase) inhibition activities. The HDAC fluorometric substrate, which comprises an acetylated lysine side chain, was incubated with extracted nuclear protein first. Deacetylation of the substrate sensitized the substrate, so that, in the second step, treatment with the Lysine Developer produced a fluorophore. The fluorophore can easily be analyzed by using a fluorescence plate reader. […] Inhibition of HDAC has been implicated in the induction of differentiation in cancer cells. In this experiment, a well-known compound for HDAC inhibition, sodium butyrate, was used as a positive control.

For the next assay, the system named is rat C6 glioma cells. Briefly: RT-PCR of cell cycle regulator mRNA in C6 glioma cells. The settings on record: GAPDH internal control (Fig. 3). It is filed as cell-based. As to the method:
For the rat C6 glioma cells, the cell cycle related to mRNA expression was examined by RT-PCR. The total RNAs were isolated from the treated C6 cells by using the RNeasy Mini Kit (Qiagen) according to the manufacturer's instructions. The cDNAs were produced from 500ng of total RNAs using ReverTra-Plus-TM (TOYOBO). The RT product (1µl) was amplified by PCR with primers to analyze several genes of cell cycle by using GAPDH as an internal control. According to the results of Fig. 3, NBM-HD-1 can modulate the expression of some cell cycle regulators. […] On the contrary, the expression of p21 was increased.

The structures appear in SMILES notation.

Consider `COc1cc2c(c(OC)c1CCC(C)(C)O)C(=O)C[C@@H](c1ccc(OC)c(OC)c1C/C=C(\C)CCCC(C)(C)O)O2` [NBM-HD-1], for which, in assay [1] (2.5, 5 and 10 µg/mL, 48 hours (Fig. 8(A))), the “morphology of MCF-7 cells” value is given as “change their morphology”. Moreover, the “growth of MCF-7 cancer cells” value in assay [1] (NBM-HD-1 2.5, 5 and 10 µg/mL, sodium butyrate 4mM, observed after 48 hours, counted after 96 hours (Fig. 8)) is recorded as “can inhibit the growth of MCF-7 cancer cells in a dose-dependent manner”. In addition, in assay [2] (2.5, 5 and 10 µg/mL, 72 hours (Fig. 7(A))), the “morphology of 05MG cancer cells” value is recorded as “change the morphology of 05MG cancer cells”. Further, the “growth of 05MG cells” value in assay [2] (NBM-HD-1 2.5, 5 and 10 µg/mL, sodium butyrate 4 mM, 72 hours, density and cell counting (Fig. 7)) is listed as “can inhibit the growth of 05MG cells in a dose-dependent manner”. Moreover, the HDAC activity result in the assay on HDAC is listed as “significantly inhibits HDAC activity”. In the assay on rat C6 glioma cells, the “expression of cyclinB1” value was “decrease the expression of cyclinD1 and cyclinB1 in a dose-dependent manner”; the “expression of cyclinD1” value is “decrease the expression of cyclinD1 and cyclinB1 in a dose-dependent manner”; the “expression of p21” value is listed as “increased”.
